Assay results taken from ChEMBL document CHEMBL1201861, “Genomics of Drug Sensitity in Cancer screening data, Wellcome Trust Sanger Institute”.
pIC50: −log10 of the molar value.

Tests used:
Test in all cases: cells
Format in all cases: functional, cell-based, Homo sapiens
D-263MG = conditions: Homo sapiens, D-263MG
Description: SANGER: Inhibition of human D-263MG cell growth in a cell viability assay.

Calu-6 = conditions: Homo sapiens, Calu-6
Description: SANGER: Inhibition of human Calu-6 cell growth in a cell viability assay.

VA-ES-BJ = conditions: Homo sapiens, VA-ES-BJ
Description: SANGER: Inhibition of human VA-ES-BJ cell growth in a cell viability assay.

A704 = conditions: Homo sapiens, A704
Description: SANGER: Inhibition of human A704 cell growth in a cell viability assay.

A253 cell line = conditions: Homo sapiens, A253
Description: SANGER: Inhibition of human A253 cell growth in a cell viability assay.

MZ7-mel = conditions: Homo sapiens, MZ7-mel
Description: SANGER: Inhibition of human MZ7-mel cell growth in a cell viability assay.

SCC-15 = conditions: Homo sapiens, SCC-15
Description: SANGER: Inhibition of human SCC-15 cell growth in a cell viability assay.

NCI-H1648 = conditions: Homo sapiens, NCI-H1648
Description: SANGER: Inhibition of human NCI-H1648 cell growth in a cell viability assay.

ML-2 = conditions: Homo sapiens, ML-2
Description: SANGER: Inhibition of human ML-2 cell growth in a cell viability assay.

JVM-2 = conditions: Homo sapiens, JVM-2
Description: SANGER: Inhibition of human JVM-2 cell growth in a cell viability assay.

ES5 = conditions: Homo sapiens, ES5
Description: SANGER: Inhibition of human ES5 cell growth in a cell viability assay.

NCI-H69 = conditions: Homo sapiens, NCI-H69
Description: SANGER: Inhibition of human NCI-H69 cell growth in a cell viability assay.

NCI-H23 = conditions: Homo sapiens, NCI-H23
Description: SANGER: Inhibition of human NCI-H23 cell growth in a cell viability assay.

Becker = conditions: Homo sapiens, Becker
Description: SANGER: Inhibition of human Becker cell growth in a cell viability assay.

NCI-H1581 = conditions: Homo sapiens, NCI-H1581
Description: SANGER: Inhibition of human NCI-H1581 cell growth in a cell viability assay.

LU-139 = conditions: Homo sapiens, LU-139
Description: SANGER: Inhibition of human LU-139 cell growth in a cell viability assay.

LAMA-84 = conditions: Homo sapiens, LAMA-84
Description: SANGER: Inhibition of human LAMA-84 cell growth in a cell viability assay.

LS-1034 = conditions: Homo sapiens, LS-1034
Description: SANGER: Inhibition of human LS-1034 cell growth in a cell viability assay.

HCE-T = conditions: Homo sapiens, HCE-T
Description: SANGER: Inhibition of human HCE-T cell growth in a cell viability assay.

no-11 = conditions: Homo sapiens
Description: SANGER: Inhibition of human no-11 cell growth in a cell viability assay.

HD-MY-Z = conditions: Homo sapiens, HD-MY-Z
Description: SANGER: Inhibition of human HD-MY-Z cell growth in a cell viability assay.

NCI-H1650 = conditions: Homo sapiens, NCI-H1650
Description: SANGER: Inhibition of human NCI-H1650 cell growth in a cell viability assay.

697 = conditions: Homo sapiens
Description: SANGER: Inhibition of human 697 cell growth in a cell viability assay.

LB2518-MEL = conditions: Homo sapiens, LB2518-MEL
Description: SANGER: Inhibition of human LB2518-MEL cell growth in a cell viability assay.

COLO-684 = conditions: Homo sapiens, COLO-684
Description: SANGER: Inhibition of human COLO-684 cell growth in a cell viability assay.

KURAMOCHI = conditions: Homo sapiens, KURAMOCHI
Description: SANGER: Inhibition of human KURAMOCHI cell growth in a cell viability assay.

BV-173 = conditions: Homo sapiens, BV-173
Description: SANGER: Inhibition of human BV-173 cell growth in a cell viability assay.

SW 954 = conditions: Homo sapiens, SW 954
Description: SANGER: Inhibition of human SW954 cell growth in a cell viability assay.

NCI-H446 = conditions: Homo sapiens, NCI-H446
Description: SANGER: Inhibition of human NCI-H446 cell growth in a cell viability assay.

ES8 = conditions: Homo sapiens, ES8
Description: SANGER: Inhibition of human ES8 cell growth in a cell viability assay.

NB10 = conditions: Homo sapiens, NB10
Description: SANGER: Inhibition of human NB10 cell growth in a cell viability assay.

KARPAS-299 = conditions: Homo sapiens, KARPAS-299
Description: SANGER: Inhibition of human KARPAS-299 cell growth in a cell viability assay.

LXF-289 cell line = conditions: Homo sapiens, LXF-289
Description: SANGER: Inhibition of human LXF-289 cell growth in a cell viability assay.

ES3 = conditions: Homo sapiens, ES3
Description: SANGER: Inhibition of human ES3 cell growth in a cell viability assay.

KP-N-YS = conditions: Homo sapiens, KP-N-YS
Description: SANGER: Inhibition of human KP-N-YS cell growth in a cell viability assay.

MLMA = conditions: Homo sapiens, MLMA
Description: SANGER: Inhibition of human MLMA cell growth in a cell viability assay.

BB30-HNC = conditions: Homo sapiens, BB30-HNC
Description: SANGER: Inhibition of human BB30-HNC cell growth in a cell viability assay.

MHH-NB-11 = conditions: Homo sapiens, MHH-NB-11
Description: SANGER: Inhibition of human MHH-NB-11 cell growth in a cell viability assay.

OVCAR-4 = conditions: Homo sapiens, OVCAR-4
Description: SANGER: Inhibition of human OVCAR-4 cell growth in a cell viability assay.

KNS-81-FD = conditions: Homo sapiens, KNS-81-FD
Description: SANGER: Inhibition of human KNS-81-FD cell growth in a cell viability assay.

KMOE-2 = conditions: Homo sapiens, KMOE-2
Description: SANGER: Inhibition of human KMOE-2 cell growth in a cell viability assay.

LS-123 = conditions: Homo sapiens, LS-123
Description: SANGER: Inhibition of human LS-123 cell growth in a cell viability assay.

HH = conditions: Homo sapiens, HH
Description: SANGER: Inhibition of human HH cell growth in a cell viability assay.

OCI-AML2 = conditions: Homo sapiens, OCI-AML2
Description: SANGER: Inhibition of human OCI-AML2 cell growth in a cell viability assay.

TE-1 = conditions: Homo sapiens, TE-1
Description: SANGER: Inhibition of human TE-1 cell growth in a cell viability assay.

NCI-H82 = conditions: Homo sapiens, NCI-H82
Description: SANGER: Inhibition of human NCI-H82 cell growth in a cell viability assay.

NMC-G1 = conditions: Homo sapiens, NMC-G1
Description: SANGER: Inhibition of human NMC-G1 cell growth in a cell viability assay.

EW-1 = conditions: Homo sapiens, EW-1
Description: SANGER: Inhibition of human EW-1 cell growth in a cell viability assay.

## Cc1cc([N+](=O)[O-])ccc1NS(=O)(=O)c1cc(Cl)ccc1Cl
D-263MG
  pIC50: 4.97
Calu-6
  pIC50: 6.08
VA-ES-BJ
  pIC50: 5.91
A704
  pIC50: 5.59
A253 cell line
  pIC50: 5.23
MZ7-mel
  pIC50: 5.47
SCC-15
  pIC50: 5.40
NCI-H1648
  pIC50: 5.69
ML-2
  pIC50: 5.10
JVM-2
  pIC50: < 4.49
ES5
  pIC50: < 4.49
NCI-H69
  pIC50: < 4.49
NCI-H23
  pIC50: < 4.49
Becker
  pIC50: 4.78
NCI-H1581
  pIC50: 5.03
LU-139
  pIC50: 4.89
LAMA-84
  pIC50: 5.22
LS-1034
  pIC50: 5.26
HCE-T
  pIC50: 5.02
no-11
  pIC50: 5.17
HD-MY-Z
  pIC50: 4.85
NCI-H1650
  pIC50: 5.07
697
  pIC50: < 4.49
LB2518-MEL
  pIC50: 5.94
COLO-684
  pIC50: 4.92
KURAMOCHI
  pIC50: 5.88
BV-173
  pIC50: < 4.49
SW 954
  pIC50: 5.14
NCI-H446
  pIC50: < 4.49
ES8
  pIC50: 5.05
NB10
  pIC50: 4.79
KARPAS-299
  pIC50: < 4.49
LXF-289 cell line
  pIC50: 5.27
ES3
  pIC50: 5.11
KP-N-YS
  pIC50: 4.80
MLMA
  pIC50: 5.05
BB30-HNC
  pIC50: 5.58
MHH-NB-11
  pIC50: 4.68
OVCAR-4
  pIC50: 5.34
KNS-81-FD
  pIC50: 4.67
KMOE-2
  pIC50: 5.42
LS-123
  pIC50: 5.04
HH
  pIC50: 4.82
OCI-AML2
  pIC50: 5.60
TE-1
  pIC50: 5.12
NCI-H82
  pIC50: 4.74
NMC-G1
  pIC50: 5.00
EW-1
  pIC50: 4.81

## Oc1ccc2ccccc2c1SSc1c(O)ccc2ccccc12
D-263MG
  pIC50: < 4.49
Calu-6
  pIC50: < 4.49
VA-ES-BJ
  pIC50: < 4.49
A704
  pIC50: < 4.49
A253 cell line
  pIC50: < 4.49
MZ7-mel
  pIC50: < 4.49
SCC-15
  pIC50: < 4.49
NCI-H1648
  pIC50: < 4.49
ML-2
  pIC50: 4.58
JVM-2
  pIC50: < 4.49
ES5
  pIC50: 4.91
NCI-H69
  pIC50: < 4.49
NCI-H23
  pIC50: < 4.49
Becker
  pIC50: < 4.49
NCI-H1581
  pIC50: < 4.49
LU-139
  pIC50: < 4.49
LAMA-84
  pIC50: < 4.49
LS-1034
  pIC50: < 4.49
HCE-T
  pIC50: < 4.49
no-11
  pIC50: < 4.49
HD-MY-Z
  pIC50: < 4.49
NCI-H1650
  pIC50: < 4.49
697
  pIC50: < 4.49
LB2518-MEL
  pIC50: < 4.49
COLO-684
  pIC50: 4.69
KURAMOCHI
  pIC50: < 4.49
BV-173
  pIC50: < 4.49
SW 954
  pIC50: < 4.49
NCI-H446
  pIC50: < 4.49
ES8
  pIC50: < 4.49
NB10
  pIC50: < 4.49
KARPAS-299
  pIC50: < 4.49
LXF-289 cell line
  pIC50: < 4.49
ES3
  pIC50: 4.94
KP-N-YS
  pIC50: < 4.49
MLMA
  pIC50: 4.53
BB30-HNC
  pIC50: < 4.49
MHH-NB-11
  pIC50: < 4.49
OVCAR-4
  pIC50: < 4.49
KNS-81-FD
  pIC50: < 4.49
KMOE-2
  pIC50: < 4.49
LS-123
  pIC50: 5.06
HH
  pIC50: 4.97
OCI-AML2
  pIC50: 5.09
TE-1
  pIC50: < 4.49
NCI-H82
  pIC50: < 4.49
NMC-G1
  pIC50: < 4.49
EW-1
  pIC50: 4.85
